# Columns and labels:
# Type in all cases: in vivo, Glycine max
# event SYHT04R = assay: Herbicide tolerance performance of transgenic seeds and progeny plants; details: from a population of about 90 transformants
# From the text: After plants became established in the soil and new growth appeared (˜1-2 weeks), plants were sampled and tested for the presence of desired transgene by TAQMAN® analysis using appropriate probes for the HPPD genes or promoters. Positive plants were transplanted into 4″ square pots containing Fafard #3 soil. Sierra 17-6-12 slow release fertilizer was incorporated into the soil at the recommended rate. The plants were then relocated into a standard greenhouse to acclimatize (˜1 week). The environmental conditions were: 27° C. day; 21° C. night; 14 hour photoperiod (with supplemental light); ambient humidity. After acclimatizing (˜1 week), the plants were sampled and tested in detail for the presence and copy number of inserted transgenes. Transgenic soybean plants were grown to maturity for T1 seed production. T1 plants were grown up, and after TAQMAN® analysis, homozygous plants were grown for seed production. Transgenic seeds and progeny plants were used to further evaluate their herbicide tolerance performance and molecular characteristics.
# Soybean event SYHT04R = assay: Yield of soybean event SYHT04R sprayed with mesotrione versus the event unsprayed; details: for average yield advantage versus unsprayed: SYHT04R in several elite soybean genotypes, additional replicated trials
# Protocol: This observation has been made during multiple seasons of replicated agronomic and efficacy trials conducted on the STYHT04R event in the genotype ‘Jack.’ In a representative study, SYHT04R was tested in twenty Midwestern locations.
# [1] = test system: non-transgenic soybean line Jack; assay: Field efficacy: leaf injury after mesotrione treatment, control line; details: 210 g ai/ha mesotrione at V2/V3 stage, % of leaves showing injury, 9 US locations
# Protocol: (§1) SYH[…] soybean plants were tested for efficacy against mesotrione in 9 locations in the United States. The non-transgenic soybean line Jack was used as a control. […]
# SYHT04R soybean plants = assay: Field efficacy: leaf injury after mesotrione treatment, event SYHT04R; details: line SYHT04R; 210 g ai/ha mesotrione at V2/V3 stage; % of leaves showing injury; 9 US locations
# Protocol: as §1
compound,measurement,setting,value
CS(=O)(=O)c1ccc(C(=O)C2C(=O)CCCC2=O)c([N+](=O)[O-])c1 [mesotrione],mesotrione tolerance of the event,event SYHT04R,high level of mesotrione tolerance
same,greater yield than the unsprayed event,"Soybean event SYHT04R; 2× application at early vegetative stage, separate study, ten locations",1.4 bushels per acre
same,greater yield than the unsprayed event,"Soybean event SYHT04R; 2× application at early vegetative stage, twenty Midwestern locations, genotype Jack",3.7 bushels per acre
same,greater yield than the unsprayed event,"Soybean event SYHT04R; 2× pre-emergence application, separate study, ten locations",3.1 bushels per acre
same,greater yield than the unsprayed event,"Soybean event SYHT04R; 2× pre-emergence application, twenty Midwestern locations, genotype Jack",4.9 bushels per acre
same,average yield advantage versus unsprayed,Soybean event SYHT04R; early post-emergence application,0.6 bushels per acre
same,average yield advantage versus unsprayed,Soybean event SYHT04R; pre-emergence application,1.1 bushels per acre
same,% Injury 5-11 DAT,[1],57%
same,% Injury 14-21 DAT,[1],78%
same,% Injury 25-36 DAT,[1],72%
same,% Injury 5-11 DAT,SYHT04R soybean plants,19%
same,% Injury 14-21 DAT,SYHT04R soybean plants,10%
same,% Injury 25-36 DAT,SYHT04R soybean plants,4%

# From US10006044B2, “Soybean event SYHT04R and compositions and methods for detection thereof” (Syngenta Participations AG, priority 2010, dated 2018)
